# How the values were obtained:
# Streptococcus pneumoniae = assay: Antibacterial activity against penicillin-resistant Streptococcus pneumoniae after 18 to 20 hrs by CLSI-protocol based broth microdilution method; assay type: functional
# Streptococcus pyogenes = assay: Antibacterial activity against Streptococcus pyogenes after 18 to 20 hrs by CLSI-protocol based broth microdilution method; assay type: functional; conditions: Streptococcus pyogenes; read-out: MIC
# [1] = Solubility of the compound in pH 1.2 gastric juice incubated at 37 degC for 24 hrs by LC/MS/MS analysis; assay type: physicochemical
# Staphylococcus aureus [2] = assay: Antibacterial activity against methicillin-resistant Staphylococcus aureus infected in Kunming mouse treated with 50 mg/kg cytochrome P450 inhibitor ABT dosed subcutaneously at 0.5 and 4.0 hrs postinfection followed by and measured at 7 to 14 days post treatment by Bliss method; assay type: functional; conditions: sc
# DNA gyrase = DNA gyrase (Staphylococcus aureus, UniProt P0A0K8+P20831)
# Description: Inhibition of Staphylococcus aureus DNA gyrase supercoiling activity using relaxed pHOT-1 DNA as substrate after 60 mins by ethidium bromide-based gel electrophoresis
# [3] = biological target: DNA topoisomerase 2-alpha (Homo sapiens, UniProt P11388); assay: Inhibition of human topoisomerase-2alpha using catenated DNA as substrate after 30 mins by ethidium bromide-based gel electrophoresis
# Staphylococcus aureus [4] = assay: Antibacterial activity against methicillin-resistant Staphylococcus aureus after 18 to 20 hrs by CLSI-protocol based broth microdilution method; assay type: functional
# [5] = Solubility of the compound in water incubated at 37 degC for 24 hrs by LC/MS/MS analysis; assay type: physicochemical
# [6] = Tmax in CD1 mouse at 10 mg/kg, po by LC-MS/MS analysis; assay type: ADME, organism-based; conditions: in vivo
# [7] = system: Staphylococcus epidermidis; assay: Antibacterial activity against methicillin-resistant Staphylococcus epidermidis after 18 to 20 hrs by CLSI-protocol based broth microdilution method; assay type: functional
# Staphylococcus aureus [8] = assay: Antibacterial activity against methicillin-sensitive Staphylococcus aureus infected in Kunming mouse treated with 50 mg/kg cytochrome P450 inhibitor ABT dosed subcutaneously at 0.5 and 4.0 hrs postinfection followed by and measured at 7 to 14 days post treatment by Bliss method; assay type: functional; conditions: sc
# [9] = Solubility of the compound in pH 6.8 intestinal juice incubated at 37 degC for 24 hrs by LC/MS/MS analysis; assay type: physicochemical
# Neisseria gonorrhoeae = assay: Antibacterial activity against Neisseria gonorrhoeae after 18 to 20 hrs by CLSI-protocol based agar microdilution method; assay type: functional
# [10] = AUCt in CD1 mouse at 10 mg/kg, po by LC-MS/MS analysis; assay type: ADME, organism-based; conditions: in vivo
# [11] = system: Staphylococcus epidermidis; assay: Antibacterial activity against methicillin-sensitive Staphylococcus epidermidis after 18 to 20 hrs by CLSI-protocol based broth microdilution method; assay type: functional
# Staphylococcus aureus [12] = assay: Antibacterial activity against methicillin-sensitive Staphylococcus aureus after 18 to 20 hrs by CLSI-protocol based broth microdilution method; assay type: functional; conditions: Staphylococcus aureus; read-out: MIC
# [13] = Cmax in CD1 mouse at 10 mg/kg, po by LC-MS/MS analysis; assay type: ADME, organism-based; set-up: dose 10 mg/kg, route oral; conditions: in vivo
# [14] = Elimination half life in CD1 mouse at 10 mg/kg, po by LC-MS/MS analysis; assay type: ADME, organism-based; conditions: in vivo, read-out: beta t1/2 (converted)
# [15] = MRT in CD1 mouse at 10 mg/kg, po by LC-MS/MS analysis; assay type: ADME, organism-based; conditions: in vivo
# Sequence of DNA topoisomerase 2-alpha (P11388 whole entry): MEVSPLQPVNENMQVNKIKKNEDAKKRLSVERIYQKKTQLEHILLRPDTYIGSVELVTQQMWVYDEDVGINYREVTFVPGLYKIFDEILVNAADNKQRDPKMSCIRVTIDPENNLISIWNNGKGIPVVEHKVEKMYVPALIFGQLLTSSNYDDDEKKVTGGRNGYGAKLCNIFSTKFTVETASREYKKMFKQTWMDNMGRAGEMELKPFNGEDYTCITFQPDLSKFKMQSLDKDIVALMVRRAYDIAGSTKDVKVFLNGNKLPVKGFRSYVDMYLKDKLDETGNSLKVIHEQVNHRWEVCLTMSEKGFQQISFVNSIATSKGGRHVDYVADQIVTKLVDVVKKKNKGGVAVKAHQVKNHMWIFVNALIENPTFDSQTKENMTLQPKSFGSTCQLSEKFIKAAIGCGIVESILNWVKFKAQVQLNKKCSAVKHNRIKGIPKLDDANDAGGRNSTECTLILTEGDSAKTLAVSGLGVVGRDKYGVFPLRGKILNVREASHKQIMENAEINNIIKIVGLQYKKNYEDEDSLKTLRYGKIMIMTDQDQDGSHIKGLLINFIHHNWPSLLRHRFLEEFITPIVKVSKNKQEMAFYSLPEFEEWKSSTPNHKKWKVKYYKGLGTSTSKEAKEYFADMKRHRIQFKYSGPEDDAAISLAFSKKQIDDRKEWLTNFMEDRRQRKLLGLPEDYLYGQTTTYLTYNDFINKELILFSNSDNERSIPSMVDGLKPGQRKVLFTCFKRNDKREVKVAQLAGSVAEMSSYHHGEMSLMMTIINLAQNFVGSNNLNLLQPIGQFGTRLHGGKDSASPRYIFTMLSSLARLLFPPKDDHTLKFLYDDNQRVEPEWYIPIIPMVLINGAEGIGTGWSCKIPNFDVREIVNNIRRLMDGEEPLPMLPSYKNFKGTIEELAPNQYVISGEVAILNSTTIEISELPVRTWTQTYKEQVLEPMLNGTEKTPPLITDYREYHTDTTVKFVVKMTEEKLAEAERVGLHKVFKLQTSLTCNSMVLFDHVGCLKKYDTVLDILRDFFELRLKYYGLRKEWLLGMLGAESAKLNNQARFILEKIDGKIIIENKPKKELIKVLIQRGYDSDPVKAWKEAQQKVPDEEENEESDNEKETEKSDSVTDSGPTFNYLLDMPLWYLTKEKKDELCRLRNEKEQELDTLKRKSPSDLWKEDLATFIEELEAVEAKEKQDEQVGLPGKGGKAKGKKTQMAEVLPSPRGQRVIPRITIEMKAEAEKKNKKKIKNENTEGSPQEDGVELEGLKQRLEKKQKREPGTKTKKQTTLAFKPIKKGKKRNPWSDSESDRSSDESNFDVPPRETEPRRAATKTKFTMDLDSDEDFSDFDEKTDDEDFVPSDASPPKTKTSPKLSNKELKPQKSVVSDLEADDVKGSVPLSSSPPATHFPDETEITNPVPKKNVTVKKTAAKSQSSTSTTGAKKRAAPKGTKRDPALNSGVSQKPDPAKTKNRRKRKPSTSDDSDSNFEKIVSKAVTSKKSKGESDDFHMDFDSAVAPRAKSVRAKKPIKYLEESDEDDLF
# Sequence of DNA gyrase (P0A0K8 whole entry): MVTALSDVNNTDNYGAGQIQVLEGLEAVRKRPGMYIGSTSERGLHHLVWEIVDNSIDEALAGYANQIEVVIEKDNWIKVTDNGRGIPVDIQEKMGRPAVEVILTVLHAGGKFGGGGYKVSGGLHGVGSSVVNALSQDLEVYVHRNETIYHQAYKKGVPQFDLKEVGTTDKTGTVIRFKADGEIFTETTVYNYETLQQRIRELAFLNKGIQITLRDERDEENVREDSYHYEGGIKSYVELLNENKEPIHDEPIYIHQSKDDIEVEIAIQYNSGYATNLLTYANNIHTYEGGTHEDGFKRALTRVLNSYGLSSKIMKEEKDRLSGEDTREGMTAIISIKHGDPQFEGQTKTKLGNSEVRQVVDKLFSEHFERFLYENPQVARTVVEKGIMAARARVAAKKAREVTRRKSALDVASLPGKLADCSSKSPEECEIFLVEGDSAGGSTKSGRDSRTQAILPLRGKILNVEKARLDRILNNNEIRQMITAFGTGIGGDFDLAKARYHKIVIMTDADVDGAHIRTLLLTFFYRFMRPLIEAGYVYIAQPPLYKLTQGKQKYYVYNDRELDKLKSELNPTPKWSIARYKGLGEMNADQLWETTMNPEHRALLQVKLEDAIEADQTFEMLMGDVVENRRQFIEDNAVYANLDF
# Sequence of DNA gyrase (P20831 whole entry): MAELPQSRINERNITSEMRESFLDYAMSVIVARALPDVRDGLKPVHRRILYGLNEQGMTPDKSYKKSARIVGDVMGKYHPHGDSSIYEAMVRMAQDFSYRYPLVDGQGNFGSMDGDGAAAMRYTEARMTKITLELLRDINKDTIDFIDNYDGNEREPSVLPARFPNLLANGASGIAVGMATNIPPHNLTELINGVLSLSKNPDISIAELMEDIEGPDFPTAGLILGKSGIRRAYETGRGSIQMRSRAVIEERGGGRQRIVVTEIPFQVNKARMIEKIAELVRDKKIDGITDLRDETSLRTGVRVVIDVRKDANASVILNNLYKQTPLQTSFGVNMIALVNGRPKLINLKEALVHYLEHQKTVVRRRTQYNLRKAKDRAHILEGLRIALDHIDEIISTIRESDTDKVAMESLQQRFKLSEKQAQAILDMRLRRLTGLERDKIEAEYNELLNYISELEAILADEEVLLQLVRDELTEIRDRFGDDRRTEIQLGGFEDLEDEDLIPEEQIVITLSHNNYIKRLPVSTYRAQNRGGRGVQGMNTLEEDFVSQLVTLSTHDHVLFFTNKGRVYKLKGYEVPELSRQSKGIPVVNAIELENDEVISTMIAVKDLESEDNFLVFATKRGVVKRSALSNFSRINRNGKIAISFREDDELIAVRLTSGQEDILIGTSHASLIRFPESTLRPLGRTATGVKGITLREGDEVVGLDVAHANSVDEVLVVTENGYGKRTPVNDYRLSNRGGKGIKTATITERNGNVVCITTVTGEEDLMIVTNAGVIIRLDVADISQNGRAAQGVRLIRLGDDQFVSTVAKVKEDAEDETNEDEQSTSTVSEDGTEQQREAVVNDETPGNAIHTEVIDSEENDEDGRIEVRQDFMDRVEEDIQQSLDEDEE
compound,measurement,setting,value
C[C@@H]1CN2c3c(cc4c(N5CCOC5=O)noc4c3F)CC3(C(=O)NC(=O)NC3=O)[C@H]2[C@H](C)O1,MIC,Streptococcus pneumoniae,0.25 to 1 µg/mL
same,MIC,Streptococcus pyogenes,0.25 to 0.5 µg/mL
same,solubility at 24 h,[1],121 µM
same,ED50,Staphylococcus aureus [2],11.5 mg/kg
same,IC50,DNA gyrase,24.3 µM
same,IC50,[3],> 200 µM
same,MIC,Staphylococcus aureus [4],0.03 to 1 µg/mL
same,solubility at 24 h,[5],128 µM
same,Tmax,[6],0.58 h
same,MIC,[7],0.03 to 0.25 µg/mL
same,ED50,Staphylococcus aureus [8],11 mg/kg
same,solubility at 24 h,[9],139 µM
same,MIC50,Neisseria gonorrhoeae,0.03 µg/mL
same,MIC90,Neisseria gonorrhoeae,0.125 µg/mL
same,AUC(0-t),[10],748 ng·h/mL
same,MIC,[11],0.06 to 0.25 µg/mL
same,MIC,Staphylococcus aureus [12],0.125 to 0.25 µg/mL
same,Cmax,[13],183 ng/mL
same,half-life,[14],3.41 h
same,MRT,[15],7.06 h

# Reference: ChEMBL document CHEMBL4316588, “Design, Synthesis, and Biological Evaluation of Novel DNA Gyrase-Inhibiting Spiropyrimidinetriones as Potent Antibiotics for Treatment of Infections Caused by Multidrug-Resistant Gram-Positive Bacteria” (J Med Chem, 2019)
